Data from US20230039917A1, “EXO-AZA SPIRO INHIBITORS OF MENIN-MLL INTERACTION” (Janssen Pharmaceutica NV, priority 2017, published 2023).
Like-named read-outs stand apart in the source and are kept apart here. Values belong to the molecule of their own block, whether it stands above or below them.

Key:
MOLM14 cells = experiment: Proliferation assay B (spheroid assay) MOLM14; type: cell-based, human; conditions: confluence at day 8, read-out: (3b) Spheroid assay MOLM14 (IC50(μM)) Assay B
Protocol: 3b) Proliferation Assay B
(§1) The anti-proliferative effect of menin/MLL protein/protein interaction inhibitor test compounds was assessed in human leukemia cell lines. The cell lines MV-4-11 and MOLM14 harbor MLL translocations and express the MLL fusion proteins MLL-AF4 and MLL-AF9, respectively, as well as the wildtype protein from the second allele. […] K562 was used as a control cell line containing two MLL wildtype alleles in order to exclude compounds that display general cytotoxic effects.
(§2) MV-4-11 and MOLM14 were cultured in RPMI-1640 (Sigma Aldrich) supplemented with 10% fetal bovine serum (HyClone), 2 mM L-glutamine (Sigma Aldrich) and 50 μg/ml gentamycin (Gibco). K562 were propagated in RPMI-1640 (Sigma Aldrich) supplemented with 20% fetal bovine serum (HyClone), 2 mM L-glutamine (Sigma Aldrich) and 50 μg/ml gentamycin (Gibco).
(§3) In order to assess the anti-proliferative effects, 1,500 MV-4-11, 300 MOLM14 cells or 750 K562 cells were seeded in 200 μl media per well in 96-well round bottom, ultra-low attachment plates (Costar, catalogue number 7007). Cell seeding numbers were chosen based on growth curves to ensure linear growth throughout the experiment. Test compounds were added at different concentrations and the DMSO content was normalized to 0.3%. Cells were incubated for 8 d at 37° C. and 5% CO2. Spheroid like growth was measured in real-time by live-cell imaging (IncuCyteZOOM, Essenbio, 4× objective) acquiring images at day 8. Confluence (%) as a measure of spheroid size was determined using an integrated analysis tool.
In order to determine the effect of the test compounds over time, the confluence in each well as a measure of spheroid size, was calculated. Confluence […] at the beginning of the experiment (t=0) was used as baseline for the calculation.
Absolute IC50 values were calculated as percent change in confluence as follows:
LC=Low Control: cells treated with 1 μM of the cytotoxic agent staurosporin
HC=High Control: Mean confluence (%) (DMSO treated cells)
Effect=100−(100*(Sample−LC)/(HC−LC))
To determine the IC50 a curve is fitted to the plot of % Effect vs Log 10 compound concentration using a sigmoidal fit with a variable slope and fixing the maximum to 100% and the minimum to 0%.

[1] = molecular target: T1, menin.FITC-MBM1 complex (terbium chelate-labeled menin) (Homo sapiens, UniProt O00255, F410E/T541A); experiment: Menin/MLL homogenous time-resolved fluorescence (HTRF) assay; type: binding
T1 construct: Menin (a.a. 1-610-6×his tag) was labeled with terbium cryptate as follows
T1 sequence (O00255 with tags, fused parts or gaps F410E/T541A): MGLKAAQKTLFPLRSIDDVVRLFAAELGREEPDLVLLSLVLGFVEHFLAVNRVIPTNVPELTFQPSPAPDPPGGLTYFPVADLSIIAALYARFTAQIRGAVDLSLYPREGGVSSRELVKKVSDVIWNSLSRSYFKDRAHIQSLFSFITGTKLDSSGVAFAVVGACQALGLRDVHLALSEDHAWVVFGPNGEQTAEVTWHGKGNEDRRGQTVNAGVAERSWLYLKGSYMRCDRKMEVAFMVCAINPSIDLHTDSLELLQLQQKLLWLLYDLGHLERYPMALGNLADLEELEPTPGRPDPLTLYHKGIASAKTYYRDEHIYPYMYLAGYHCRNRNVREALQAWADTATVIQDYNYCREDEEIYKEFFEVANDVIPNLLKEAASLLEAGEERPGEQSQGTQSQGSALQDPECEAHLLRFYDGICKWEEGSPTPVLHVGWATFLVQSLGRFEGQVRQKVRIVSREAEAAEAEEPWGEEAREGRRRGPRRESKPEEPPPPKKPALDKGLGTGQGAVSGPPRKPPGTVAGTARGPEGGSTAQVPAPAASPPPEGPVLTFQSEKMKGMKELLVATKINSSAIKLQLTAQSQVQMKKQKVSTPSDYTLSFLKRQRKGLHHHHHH
Protocol: 2) Menin/MLL Homogenous Time-Resolved Fluorescence (HTRF) Assay
To an untreated, white 384-well microtiter plate was added 40 nL 200× test compound in DMSO and 4 μL 2× terbium chelate-labeled menin (vide infra for preparation) in assay buffer (40 mM Tris.HCl, pH 7.5, 50 mM NaCl, 1 mM DTT and 0.05% Plutonic F-127). After incubation of test compound and terbium chelate-labeled menin for 5 min at ambient temperature, 4 μL2× FITC-MBM1 peptide (FITC-β-alanine-[…]-NH2) in assay buffer was added, the microtiter plate centrifuged at 1000 rpm for 1 min and the assay mixtures incubated for 15 min at ambient temperature. The relative amount of menin.FITC-MBM1 complex present in an assay mixture is determined by measuring the homogenous time-resolved fluorescence (HTRF) of the terbium/FITC donor/acceptor fluorphore pair using a BMG Pherastar plate reader (ex. 337 nm/terbium em. 490 nm/FITC em. 520 nm) at ambient temperature. The degree of fluorescence resonance energy transfer (the HTRF value) is expressed as the ratio of the fluorescence emission intensities of the FITC and terbium fluorophores (F^em 520 nm/F^em 490 nm). The final concentrations of reagents in the binding assay are 100 pM terbium chelate-labeled menin (location 1) or 600 pM terbium chelate-labeled menin (location 2), 75 nM FITC-MBM1 peptide and 0.5% DMSO in assay buffer. Dose-response titrations of test compounds are conducted using an 11 point, three-fold serial dilution scheme, starting typically at 25 μM (location 1) or starting typically at 10 μM (location 2).
Compound potencies were determined by first calculating % inhibition at each compound concentration according to equation 1:
% inhibition=((HC−LC)−(HTRF^compound−LC))/(HC−LC))*100 (Eqn 1)
Where LC and HC are the HTRF values of the assay in the presence or absence of a saturating concentration of a compound that competes with FITC-MBM1 for binding to menin, and HTRF^compound is the measured HTRF value in the presence of the test compound. HC and LC HTRF values represent an average of at least 16 replicates per plate.
% inhibition=Bottom+(Top−Bottom)/(1+10^((log IC50−log [cmpd])*h)) (Eqn 2)
Where Bottom and Top are the lower and upper asymptotes of the dose-response curve, respectively, IC50 is the concentration of compound that yields 50% inhibition of signal and h is the Hill coefficient.
Preparation of Terbium cryptate labeling of Menin: Menin (a.a. 1-610-6×his tag) was labeled with terbium cryptate as follows. 2 mg of Menin was buffer exchanged into 1× phosphate buffered saline. 16 uM Menin was incubated with 4-fold molar excess NHS-terbium cryptate (Cisbio Bioassays, Bedford, Mass.) for 2 hours at room temperature. The labeled protein was purified away from free label by running the reaction over a Superdex 200 Increase 10/300 GL column at 0.75 ml/min. Peak fractions were collected, aliquoted and frozen at −80° C.

MV-4-11 cells = experiment: Proliferation assay A (spheroid assay) MV-4-11; type: cell-based; conditions: Homo sapiens, MV4-11, 192 h, 8 d, AUC of confluence against time, absolute IC50, read-out: (3a) Spheroid assay MV-4-11 (IC50(μM)) Assay A
Protocol: 3a) Proliferation Assay A
as §1, §2
as §3, with “MOLM14” for “MOLM14 cells”, “monitored” for “measured”, “one image every four hours for 8 d.” for “images at day 8.”
In order to determine the cumulative effect of the test compounds over time, the area under the curve (AUC) in a plot of confluence against time was calculated. Confluence at the beginning of the experiment (t=0) was used as baseline for the AUC calculation.
Absolute IC50 values were calculated according to the following procedure:
% Control=(AUC sample/AUC control)*100
AUC control=mean AUC of control values (cells without compound/DMSO as vehicle control)
A non-linear curve fit was applied using the least squares (ordinary) fit method to the plot of % control versus compound concentration. Based on this, the absolute IC50 value (half maximal inhibitory concentration of the test compound causing an anti-proliferative effect of 50% relative to the vehicle control) was calculated.

[2] = location 2, read-out: (2) location 2 Menin HTRF assay (IC50 (nM))

Compound: CNC(=O)c1ccc(NC2CC3(CCN(c4ncnc5sc(CC(F)(F)F)cc45)C3)C2)cc1NCCN(C)C (mixture of isomers) [Compound 239]
IC50 (MOLM14 cells; Homo sapiens, MOLM-14, 192 h): > 3.75 µM

Compound: O=S(=O)(NC1CC2(CCN(c3ncnc4sc(CC(F)(F)F)cc34)C2)C1)c1ccccc1 (stereo not shown) [Compound 23]
IC50 [1, 2]: 1310 nM

Compound: CNC(=O)c1ccc(NC2CC3(CCN(c4ncnc5sc(CC(F)(F)F)cc45)C3)C2)c(Cl)c1 (single isomer, unassigned) [Compound 69]
IC50 [1, 2]: 1.2 nM

Compound: O=c1[nH]c2ccc(CN[C@@H]3CCC4(C3)CN(c3ncnc5sc(CC(F)(F)F)cc35)C4)cc2o1 (single isomer, unassigned) [Compound 55]
IC50 [1, 2]: 2 nM

Compound: CN(C)CCNC(=O)c1ccc(NC2CC3(CCN(c4ncnc5sc(CC(F)(F)F)cc45)C3)C2)cc1 (single isomer, unassigned) [Compound 74]
IC50 (MOLM14 cells; Homo sapiens, MOLM-14, 192 h): > 3.75 µM

Compound: FC(F)(F)Cc1cc2c(N3CC[C@]4(CC[C@H](NCc5ccccc5)C4)C3)ncnc2s1 (single isomer, unassigned) [Compound 4]
IC50 (MV-4-11 cells): 0.5 µM

Compound: O=c1[nH]c2ccc(NC3CC4(CCN(c5ncnc6sc(CC(F)(F)F)cc56)C4)C3)cc2[nH]1 (stereo not shown) [Compound 321]
IC50 [1, 2]: 91.5 nM

Compound: CNC(=O)c1ccc(N[C@@H]2CC[C@]3(CCN(c4ncnc5sc(CC(F)(F)F)cc45)C3)C2)cc1 (racemic) [Compound 136]
IC50 [1, 2]: 40.9 nM

Compound: Nc1nc(N2CCC3(CC(Nc4ccc5oc(=O)[nH]c5c4)C3)C2)c2cc(CC(F)(F)F)sc2n1 (stereo not shown) [Compound 380]
IC50 [1, 2]: 8.7 nM | IC50 (MOLM14 cells; Homo sapiens, MOLM-14, 192 h): > 3.75 µM

Compound: COC1CCN(C(=O)c2ccc(NC3CC4(CCN(c5ncnc6sc(CC(F)(F)F)cc56)C4)C3)cc2)CC1 (single isomer, unassigned) [Compound 184]
IC50 (MOLM14 cells): > 3.75 µM

Compound: FC(F)(F)Cc1cc2c(N3CC4(CCC(Nc5ccc(-c6cn[nH]c6)cc5)C4)C3)ncnc2s1 (stereo not shown) [Compound 302]
IC50 [1, 2]: 50.9 nM

Compound: CNS(=O)(=O)c1ccc(NC2CC3(CCN(c4ncnc5sc(CC(F)(F)F)cc45)C3)C2)cc1 (stereo not shown) [Compound 317]
IC50 [1, 2]: 143 nM

Compound: CNC(=O)c1c(F)cc(NC2CC3(CCN(c4ncnc5sc(CC(F)(F)F)cc45)C3)C2)cc1F (single isomer, unassigned) [Compound 244]
IC50 (MOLM14 cells): > 3.75 µM

Other lines, results leading:

IC50 (MOLM14 cells): > 3.75 µM
Compound: CN1CCC(c2cc(NC3CC4(CCN(c5ncnc6sc(CC(F)(F)F)cc56)C4)C3)ccc2C(=O)N2CCOCC2)CC1 (single isomer, unassigned) [Compound 233]

IC50 (MOLM14 cells; Homo sapiens, MOLM-14, 192 h): 2.24 µM
Compound: CNC(=O)c1ccc(NC2CC3(CCN(c4ncnc5sc(CC(F)(F)F)cc45)C3)C2)c(Cl)c1 (single isomer, unassigned) [Compound 68]

IC50 (MOLM14 cells): > 3.75 µM
Compound: CNC(=O)c1ccc(NC2CC3(CCN(c4ncnc5sc(CC(F)(F)F)cc45)C3)C2)cc1C1CCN(C)CC1 (single isomer, unassigned) [Compound 231]

IC50 [1, 2]: 114 nM
Compound: N#Cc1ccc(NC2CC3(CCN(c4ncnc5sc(CC(F)(F)F)cc45)C3)C2)nc1 (single isomer, unassigned) [Compound 174]

IC50 ([1]; location 1, read-out: (2) location 1 Menin HTRF assay (IC50 (nM))): 95.8 nM | IC50 (MV-4-11 cells): 0.91 µM
Compound: CC(C)CNC1CC2(CCN(c3ncnc4sc(CC(F)(F)F)cc34)C2)C1 (stereo not shown) [Compound 50]

IC50 (MOLM14 cells; Homo sapiens, MOLM-14, 192 h): 1.95 µM
Compound: CN1CCN(Cc2cc(NC3CC4(CCN(c5ncnc6sc(CC(F)(F)F)cc56)C4)C3)ccc2C#N)CC1 (mixture of isomers) [Compound 225]

IC50 (MOLM14 cells): > 3.75 µM
Compound: O=C(c1cnc(NC2CC3(CCN(c4ncnc5sc(CC(F)(F)F)cc45)C3)C2)nc1)N1CCOCC1 (single isomer, unassigned) [Compound 259]

IC50 (MV-4-11 cells): 1.12 µM
Compound: FC(F)(F)Cc1cc2c(N3CC[C@@]4(CC[C@H](NCc5ccccc5)C4)C3)ncnc2s1 (single isomer, unassigned) [Compound 6]

IC50 (MOLM14 cells; Homo sapiens, MOLM-14, 192 h): 1.14 µM
Compound: CN1CCN(c2cc(NC3CC4(CCN(c5ncnc6sc(CC(F)(F)F)cc56)C4)C3)ccc2C#N)CC1 (mixture of isomers) [Compound 240]

IC50 (MOLM14 cells): > 3.75 µM
Compound: CS(=O)(=O)N1CCN(C(=O)c2ccc(NC3CC4(CCN(c5ncnc6sc(CC(F)(F)F)cc56)C4)C3)cc2)CC1 (single isomer, unassigned) [Compound 179]
